Test results from PMC10882719 (Frontiers in Neuroscience, 2024).
Where two headings read alike, the source gives them in different places.

What was measured:
Format in all cases: cell-based
[1] = biological target: T1, 168 GPCRs (Homo sapiens, UniProt O43603)
T1 construct: host or cells: PathHunter cell lines
T1 sequence (O43603 1-387): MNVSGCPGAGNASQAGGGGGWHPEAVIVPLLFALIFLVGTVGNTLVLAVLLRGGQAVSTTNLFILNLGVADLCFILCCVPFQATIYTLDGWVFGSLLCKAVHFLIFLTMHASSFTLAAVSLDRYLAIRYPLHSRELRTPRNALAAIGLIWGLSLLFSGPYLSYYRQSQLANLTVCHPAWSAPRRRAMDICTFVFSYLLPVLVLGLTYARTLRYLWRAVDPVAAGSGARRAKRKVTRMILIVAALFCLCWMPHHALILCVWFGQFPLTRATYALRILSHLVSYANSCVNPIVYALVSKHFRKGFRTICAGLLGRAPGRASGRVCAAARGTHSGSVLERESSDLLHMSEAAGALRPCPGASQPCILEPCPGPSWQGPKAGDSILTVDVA

[2] = biological target: T2, 168 GPCRs (Homo sapiens, UniProt P30550); conditions: GRPR
T2 construct: host or cells: PathHunter cell lines

[3] = biological target: T3, 168 GPCRs (Homo sapiens, UniProt P30939); conditions: HTR1F
T3 construct: host or cells: PathHunter cell lines
T3 sequence (P30939 1-366): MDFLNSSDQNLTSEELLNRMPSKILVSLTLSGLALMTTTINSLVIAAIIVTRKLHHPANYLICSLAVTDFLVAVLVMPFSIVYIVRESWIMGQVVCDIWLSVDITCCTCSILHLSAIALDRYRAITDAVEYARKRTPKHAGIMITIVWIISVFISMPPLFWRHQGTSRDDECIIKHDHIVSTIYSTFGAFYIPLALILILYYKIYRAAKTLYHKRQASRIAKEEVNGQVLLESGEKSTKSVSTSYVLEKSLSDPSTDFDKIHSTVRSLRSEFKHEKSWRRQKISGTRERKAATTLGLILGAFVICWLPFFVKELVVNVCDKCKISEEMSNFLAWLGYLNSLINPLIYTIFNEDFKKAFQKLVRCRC

[4] = biological target: T4, 168 GPCRs (Homo sapiens, UniProt P32249)
T4 construct: host or cells: PathHunter cell lines

[5] = biological target: T5, 168 GPCRs (Homo sapiens, UniProt P47898); conditions: HTR5A
T5 construct: host or cells: PathHunter cell lines

[6] = biological target: T6, 168 GPCRs (Homo sapiens, UniProt P51684)
T6 construct: host or cells: PathHunter cell lines
T6 sequence (P51684 1-374): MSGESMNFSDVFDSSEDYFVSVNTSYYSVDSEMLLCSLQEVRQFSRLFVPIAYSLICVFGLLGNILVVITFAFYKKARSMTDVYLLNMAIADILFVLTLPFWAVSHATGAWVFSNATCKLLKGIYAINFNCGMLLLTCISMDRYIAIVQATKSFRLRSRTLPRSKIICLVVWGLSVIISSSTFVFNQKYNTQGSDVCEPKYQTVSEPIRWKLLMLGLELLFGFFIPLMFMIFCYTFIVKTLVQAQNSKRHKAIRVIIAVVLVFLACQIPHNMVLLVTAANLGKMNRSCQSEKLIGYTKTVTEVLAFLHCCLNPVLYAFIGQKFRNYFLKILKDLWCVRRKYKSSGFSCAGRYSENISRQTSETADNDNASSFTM

[7] = biological target: T7, 168 GPCRs (Homo sapiens, UniProt Q03431); conditions: PTHR1
T7 construct: host or cells: PathHunter cell lines
T7 sequence (Q03431 27-593): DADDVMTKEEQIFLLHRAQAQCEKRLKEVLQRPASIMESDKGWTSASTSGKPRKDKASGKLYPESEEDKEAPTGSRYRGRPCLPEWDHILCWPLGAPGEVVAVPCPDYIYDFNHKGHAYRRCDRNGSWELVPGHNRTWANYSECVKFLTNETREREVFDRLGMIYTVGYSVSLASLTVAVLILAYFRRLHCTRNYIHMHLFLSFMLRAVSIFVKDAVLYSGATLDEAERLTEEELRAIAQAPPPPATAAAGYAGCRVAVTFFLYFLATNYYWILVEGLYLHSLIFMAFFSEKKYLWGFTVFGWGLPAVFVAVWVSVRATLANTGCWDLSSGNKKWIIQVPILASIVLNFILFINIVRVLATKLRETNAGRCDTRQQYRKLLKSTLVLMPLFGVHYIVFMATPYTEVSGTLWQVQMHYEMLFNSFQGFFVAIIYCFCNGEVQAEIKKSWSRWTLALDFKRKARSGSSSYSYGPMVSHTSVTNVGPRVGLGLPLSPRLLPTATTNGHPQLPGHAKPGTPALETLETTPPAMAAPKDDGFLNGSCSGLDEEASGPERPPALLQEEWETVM

T2 sequence (P30550 whole entry): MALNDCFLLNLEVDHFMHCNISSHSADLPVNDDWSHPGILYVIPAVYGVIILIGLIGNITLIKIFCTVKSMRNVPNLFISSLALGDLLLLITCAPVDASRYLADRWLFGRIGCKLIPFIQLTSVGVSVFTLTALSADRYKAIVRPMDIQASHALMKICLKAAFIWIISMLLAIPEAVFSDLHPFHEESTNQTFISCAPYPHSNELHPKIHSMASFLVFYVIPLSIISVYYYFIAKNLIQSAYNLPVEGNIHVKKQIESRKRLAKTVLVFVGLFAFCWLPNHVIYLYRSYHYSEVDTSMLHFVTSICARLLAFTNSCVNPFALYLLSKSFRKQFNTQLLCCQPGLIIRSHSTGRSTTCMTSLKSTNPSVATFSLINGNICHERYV
T5 sequence (P47898 whole entry): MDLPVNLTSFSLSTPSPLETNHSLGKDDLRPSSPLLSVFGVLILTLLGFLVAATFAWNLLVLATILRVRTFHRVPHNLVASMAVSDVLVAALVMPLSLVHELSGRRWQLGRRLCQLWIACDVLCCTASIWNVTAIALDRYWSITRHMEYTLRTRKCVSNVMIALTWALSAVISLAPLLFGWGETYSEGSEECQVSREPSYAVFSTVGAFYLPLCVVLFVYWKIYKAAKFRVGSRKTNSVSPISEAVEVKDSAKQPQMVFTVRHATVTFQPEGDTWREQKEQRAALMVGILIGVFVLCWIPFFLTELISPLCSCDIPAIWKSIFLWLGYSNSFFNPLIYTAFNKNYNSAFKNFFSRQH
T4 sequence (P32249 whole entry): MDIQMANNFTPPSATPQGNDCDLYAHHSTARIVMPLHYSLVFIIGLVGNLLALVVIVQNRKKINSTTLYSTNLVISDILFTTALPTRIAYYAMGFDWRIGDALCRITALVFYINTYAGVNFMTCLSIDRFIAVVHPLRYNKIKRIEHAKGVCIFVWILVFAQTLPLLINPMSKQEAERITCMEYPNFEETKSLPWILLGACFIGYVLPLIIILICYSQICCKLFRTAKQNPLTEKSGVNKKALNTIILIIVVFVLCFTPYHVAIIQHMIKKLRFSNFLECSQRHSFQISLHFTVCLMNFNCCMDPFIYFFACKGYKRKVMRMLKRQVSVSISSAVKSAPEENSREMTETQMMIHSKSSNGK

CNC(C)C(=O)c1ccc2c(c1)OCO2 (stereo not shown) [methylone]
% Agonist Activity ([1]; GALR2, 1 uM): 3.4%
% Antagonist Activity ([1]; GALR2, 1 uM): 7%
% Agonist Activity ([1]; GALR2, 10 uM): 1.9%
% Antagonist Activity ([1]; GALR2, 10 uM): 1.5%
% Agonist Activity ([2]; 1 uM): 0%
% Antagonist Activity ([2]; 1 uM): 0.7%
% Agonist Activity ([2]; 10 uM): -0.1%
% Antagonist Activity ([2]; 10 uM): -1.4%
% Agonist Activity ([3]; 1 uM): -4.4%
% Antagonist Activity ([3]; 1 uM): 14.4%
% Agonist Activity ([3]; 10 uM): -3%
% Antagonist Activity ([3]; 10 uM): 9.2%
% Agonist Activity ([4]; EBI2, 1 uM): 0.5%
% Antagonist Activity ([4]; EBI2, 1 uM): 0.6%
% Agonist Activity ([4]; EBI2, 10 uM): -0.1%
% Antagonist Activity ([4]; EBI2, 10 uM): -2.6%
% Antagonist Activity ([5]; 1 uM): 9.8%
% Antagonist Activity ([5]; 10 uM): 1.6%
% Agonist Activity ([6]; CCR6, 1 uM): -2.9%
% Antagonist Activity ([6]; CCR6, 1 uM): 9.3%
% Agonist Activity ([6]; CCR6, 10 uM): -3.3%
% Antagonist Activity ([6]; CCR6, 10 uM): -1.6%
% Agonist Activity ([7]; Conc 1 uM): 0%
% Antagonist Activity ([7]; Conc 1 uM): 2.2%
% Agonist Activity ([7]; Conc 10 uM): 0.1%
% Antagonist Activity ([7]; Conc 10 uM): -8.3%

CNC(C)Cc1ccc2c(c1)OCO2 (stereo not shown) [MDMA, 3,4-Methylenedioxy methamphetamine, reference compound]
% Agonist Activity ([1]; GALR2, 1 uM): -2.9%
% Antagonist Activity ([1]; GALR2, 1 uM): -5.1%
% Agonist Activity ([1]; GALR2, 10 uM): -3%
% Antagonist Activity ([1]; GALR2, 10 uM): -7.3%
% Agonist Activity ([2]; 1 uM): -0.3%
% Antagonist Activity ([2]; 1 uM): 1.9%
% Agonist Activity ([2]; 10 uM): -0.6%
% Antagonist Activity ([2]; 10 uM): 1.8%
% Agonist Activity ([3]; 1 uM): 10.9%
% Antagonist Activity ([3]; 1 uM): 14.6%
% Agonist Activity ([3]; 10 uM): 8.5%
% Antagonist Activity ([3]; 10 uM): 10.8%
% Agonist Activity ([4]; EBI2, 1 uM): 0.6%
% Antagonist Activity ([4]; EBI2, 1 uM): 4.4%
% Agonist Activity ([4]; EBI2, 10 uM): -0.4%
% Antagonist Activity ([4]; EBI2, 10 uM): 7.9%
% Antagonist Activity ([5]; 1 uM): -16.4%
% Antagonist Activity ([5]; 10 uM): -6.4%
% Agonist Activity ([6]; CCR6, 1 uM): 1.4%
% Antagonist Activity ([6]; CCR6, 1 uM): 0%
% Agonist Activity ([6]; CCR6, 10 uM): 0.7%
% Antagonist Activity ([6]; CCR6, 10 uM): 0.3%
% Agonist Activity ([7]; Conc 1 uM): 0%
% Antagonist Activity ([7]; Conc 1 uM): -2.1%
% Agonist Activity ([7]; Conc 10 uM): 0.1%
% Antagonist Activity ([7]; Conc 10 uM): 7.7%
